Like-named read-outs stand apart in the source and are kept apart here.
Assays:
[1] = tested on: Citrus Greasy Spot perithecia; test: Citrus Greasy Spot perithecia count on Valencia orange leaves (Example 2); assay type: in vivo, Mycosphaerella citri; conditions: for #PERITHECIA (Number of Perithecia Per 5 MM Field at 2.5×, Mean of Three Observations): applied mid-July, leaves harvested approximately 4 months later
Method: In the present Example, fungicides were again tested on “Valencia” oranges except the effect of various fungicides on perithecia was tested.
Twenty mature leaves (from the spring flush) per replicate were harvested approximately 4 months later and placed under greenhouse conditions and alternately wetted and dried to simulate natural defoliation and weathering.
These conditions, in turn, cause the fungus to sporulate by the formation of perithecia (spore production body of fungus). The […] were counted as a means of measuring the fungicidal activity of the treatments.
Number of Perithecia Per 5 MM Field at 2.5×—Mean of Three Observations
As used herein, a, b, c, and ab indicate statistical significance using Duncan's multiple range test. In interpreting the data, a different notation, e.g. b versus ab, means there was a statistically significant difference in the results. A difference in data of samples with the same letter notation was not statistically significant.

[2] = tested on: Oak Leaf Blister (Taphrina Caerulescens); test: Oak Leaf Blister control on laurel oaks (Example 5); assay type: in vivo; conditions: for DISEASE INDEX: applications in July approximately 3 weeks apart, rated in August, index 1 = no disease to 5 = dead foliage
Text: Applications were made in July approximately 3 weeks apart and rated in August a month later. See data below.

plants = conditions: foliar applications; cited from earlier work
[3] = tested on: Phytophthora infestans (Genotype US-8, Matingtype A2); assay type: in vivo; conditions: for LESIONS PER PLANT / NO. INFECTED LEAFLETS PER PLANT / % LATE BLIGHT: potato, read seven days after inoculation; for % LATE BLIGHT: two treatments 7 days apart, inoculated 7 days later
[4] = tested on: Phytophthora infestans (Genotype US-17, Matingtype A1); assay type: in vivo; conditions: tomato; 1% v/v; read seven days after inoculation
Alternaria dauci = test: Carrot/Alternaria fungicide trial (Example 10); conditions: for AVERAGE % OF INFECTION 04/23/96 / AVERAGE % OF INFECTION 04/05/96: 8 applications; for AVERAGE % OF INFECTION 04/23/96: 25 days after last application; for AVERAGE % OF INFECTION 04/05/96: seven days after last treatment; for Alternaria control on carrots, verdict: Example 10, comment on the table
Method: In the present example, carrots were inoculated with the Alternaria fungus. The carrots were then treated with the below listed fungicidal compositions. Also a control test was conducted. The percentage of the fungicide in the solution is also listed below along with the results. Plot size for testing was a single row of 25 feet by 4 repetitions in an RCB design. The fungicide was applied eight (8) times with the carrots then examined for infection seven (7) days and twenty-five (25) days after the last fungicidal treatment.
PLOT SIZE: Single Row×25 ft.×4 reps in a RCB design. Application dates: 2/2, 9,15,22,3/8,14,22, and 28. Rated 4/5 and 4/23/96
NOTE: Second rating was 25 days after last fungicide application. Plots were inoculated with Alternaria dauci.

Erwinia chrysanthemi = test: Erwinia control on Hibiscus cuttings, foliar spray (Example 6); assay type: in vivo; conditions: for AVERAGE % INFECTION: rated one week later
Text: Treatments were allowed to dry for one hour and then placed in a commercial propagation bed under intermittent mist and rated for bacterial (Erwinia chrysanthemi) infection one week later.

Erwinia = Erwinia control on Hibiscus rooted cuttings, dip and spray (Example 7); assay type: in vivo, Erwinia chrysanthemi; conditions: for AVERAGE % INFECTION: dip, then foliar spray 7 days later
Method: A follow-up experiment to Example 6 was conducted on rooted cuttings which were dipped as they were removed from the propagation bed and foliarly sprayed 7 days later after being potted. […] Potted cuttings had not received any previous bactericide treatments prior to potting.

[5] = tested on: bacterial spots on pepper plants; assay type: in vivo; conditions: weekly applications; g AI/liter: copper+mancozeb 2+1, Cu-EDDHA 0.1, CGA-143268 1.0, other CGA compounds 0.25 and 0.5
Xanthomonas campestris = test: Xanthomonas leaf spot of croton Codiaeum variegatum (Example 9); assay type: in vivo; conditions: for AVERAGE % OF INFECTION: 3 weekly foliar applications after inoculation
Method: Croton plants inoculated with Xanthomonas were tested with various fungicides. […] AI/100 gal. and Kocide 101 at 7.4 lbs. AI/Acre (A) were applied as foliar applications to croton (Codiaeum variegatum) previously inoculated with Xanthomonas campestris a day earlier. Treatments were assigned in a RCB design and replicated 10 times with single pots. Treatments were applied 3 times on a weekly schedule and evaluated at 7 and 14 days following the last application. See data below.

[6] = 1 gal. (0.55 wt. % AI)/100 gallons
[7] = 1 gal. (0.53 wt. % AI)/100 gallons

Molecule: CC1COC(Cn2cncn2)(c2ccc(Oc3ccc(Cl)cc3)cc2Cl)O1 (stereo not shown) [Difenconazole, 1-2[2-[4-(4-chlorophenoxy)-2-chlorophenyl-(4-methyl-1,3-dioxolan-2-l)-methyl]]-1H-1 ,2,4-triazole, reference compound]
- #PERITHECIA (Number of Perithecia Per 5 MM Field at 2.5×, Mean of Three Observations) ([1]; rate 100 gm AI/100 gallons): 5.32 ab
- #PERITHECIA (Number of Perithecia Per 5 MM Field at 2.5×, Mean of Three Observations) ([1]; rate 200 gm AI/100 gallons): 11.57 ab
- DISEASE INDEX ([2]; 2 oz. product/100 gallons): 2.25

Molecule: O=C([O-])CN(CCN(CC(=O)[O-])CC(=O)[O-])CC(=O)[O-].[Fe+3] [Fe-EDTA, Fe-EDTA (ethylenediaminetetraacetic acid)]
- Phytotoxicity rankings of Fe chelates (plants): intermediate phytotoxic

Molecule: O=C([O-])CN(CCO)CCN(CC(=O)[O-])CC(=O)[O-].[Fe+3] [Fe-HEEDTA, Fe-HEEDTA (hydroxyethylethylenediaminetriacetic acid)]
- Phytotoxicity rankings of Fe chelates (plants): most phytotoxic

Molecule: O=[PH]([O-])[O-].[K+].[K+] [Sample K2HPO3]
- Potato late blight control, verdict ([3]; Example 11, comment on the table): good results in controlling the blight
- LESIONS PER PLANT ([3]; 1% v/v): 2.4
- NO. INFECTED LEAFLETS PER PLANT ([3]; 1% v/v): 1.8
- % LATE BLIGHT ([3]; 1% v/v): 1.85%
- LESIONS PER PLANT [4]: 56.7
- NO. INFECTED LEAFLETS PER PLANT [4]: 21.5
- AVERAGE % OF INFECTION 04/23/96 (Alternaria dauci; [6]): 28.8%
- AVERAGE % OF INFECTION 04/05/96 (Alternaria dauci; [6]): 18.7%

Molecule: O=P([O-])([O-])O.[K+].[K+] [Sample K2HPO4, dipotassium phosphate]
- LESIONS PER PLANT ([3]; 1% v/v): 41.4
- NO. INFECTED LEAFLETS PER PLANT ([3]; 1% v/v): 31.1
- % LATE BLIGHT ([3]; 1% v/v): 18.45%
- LESIONS PER PLANT [4]: 74.8
- NO. INFECTED LEAFLETS PER PLANT [4]: 36.5
- AVERAGE % OF INFECTION 04/23/96 (Alternaria dauci; [7]): 8.2%
- AVERAGE % OF INFECTION 04/05/96 (Alternaria dauci; [7]): 6.9%

Molecule: Fe-DTPA (di-ethylenetriaminepentaacetic acid)
- Phytotoxicity rankings of Fe chelates (plants): less phytotoxic

Molecule: Sodium cupric ethylenediamine-di-o-hydroxyphenylacetic acid [Cu-EDDHA]
- Perithecia reduction, verdict ([1]; Example 2, comment on the table): good results
- #PERITHECIA (Number of Perithecia Per 5 MM Field at 2.5×, Mean of Three Observations) ([1]; rate 0.2 lbs. AI/100 gallons): 3.24 b
- #PERITHECIA (Number of Perithecia Per 5 MM Field at 2.5×, Mean of Three Observations) ([1]; rate 0.4 lbs. AI/100 gallons): 5.93 ab
- DISEASE INDEX ([2]; 8 oz. product/100 gallons): 2.8
- Oak leaf blister repression, verdict ([2]; Example 5, comment on the table): suitable disease repression
- Control of Erwinia on Hibiscus, verdict (Erwinia chrysanthemi; 0.2 lb. AI): excellent control
- AVERAGE % INFECTION (Erwinia chrysanthemi; 0.2 lb. AI Cu/100 gallons foliar spray): 6%
- AVERAGE % INFECTION (Erwinia chrysanthemi; 0.4 lb. AI Cu/100 gallons foliar spray): 8%
- AVERAGE % INFECTION (Erwinia; 0.2 LB. AI/100 gallons): 19%
- Control of Erwinia on Hibiscus, verdict (Erwinia; 0.2 lb. AI): excellent control
- AVERAGE % INFECTION (Erwinia; 0.8 LB. AI/100 gallons): 32%
- Disease severity ranking 12 days after the last (eighth) application [5]: exhibited some control
- Disease severity ranking after four applications [5]: CGA-143268 which was equal to copper plus mancozeb and Cu-EDDHA in activity
- AVERAGE % OF INFECTION (Xanthomonas campestris; 26 ml (.2 lb.) AI/100 gallons): .6%
- AVERAGE % OF INFECTION (Xanthomonas campestris; 52 ml (.4 lb.) AI/100 gallons): 1.0%
- Control of Xanthomonas leaf spot of Codiaeum (Xanthomonas campestris; compared to inoculated and noninoculated controls, Cu-EDDHA at the lower rate): control equal to the noninoculated control treatment
- LESIONS PER PLANT ([3]; 0.2 lb. AI/acre): 35.3
- NO. INFECTED LEAFLETS PER PLANT ([3]; 0.2 lb. AI/acre): 26.9
- % LATE BLIGHT ([3]; 0.2 lb. AI/acre): 12.30%
- AVERAGE % OF INFECTION 04/23/96 (Alternaria dauci; 0.2 lb AI/100 gallons): 11.6%
- AVERAGE % OF INFECTION 04/05/96 (Alternaria dauci; 0.2 lb AI/100 gallons): 8.8%
- Alternaria control on carrots, verdict (Alternaria dauci): effectively limited percentage of fungicidal infection

Molecule: iron ethylenediamine-di-o-hydroxyphenylacetic acid [Fe-EDDHA]
- AVERAGE % OF INFECTION 04/23/96 (Alternaria dauci; 0.2 lb AI/100 gallons): 12.9%
- AVERAGE % OF INFECTION 04/05/96 (Alternaria dauci; 0.2 lb AI/100 gallons): 12.7%
- Alternaria control on carrots, verdict (Alternaria dauci): effective fungicides
